In ChEMBL document CHEMBL1201862, “PubChem BioAssay data set” (2004):
Active and inactive are the calls of the source.

Key:
Cytochrome P450 2C19 = Cytochrome P450 2C19 (Homo sapiens, UniProt P33261); assay: qHTS Assay for Inhibitors and Substrates of Cytochrome P450 2C19. [Related pubchem assays: 410 ]; assay type: ADME; details: read-out: Potency
Cytochrome P450 3A4 = Cytochrome P450 3A4 (Homo sapiens, UniProt P08684); details: Potency;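 further: confirmatory qHTS run detecting inhibitors and substrates of CYP3A4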
[1] = growth suppression of PTEN-null colon cells, dose response, cell-based, HCT116 PTEN knockout (AID 1047); assay type: functional;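 further: HCT116 colon tumor cells with PTEN knocked out; cells exposed to compound for 60 hours before readout; potency for loss of cell viability measured by luminescence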
[2] = growth suppression of beta-catenin-knockout colon cells, dose response, cell-based, HCT116, human colon tumor (AID 1045); assay type: functional;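 further: HCT116 colon tumor cells with beta catenin knocked out; cells exposed to compound for 60 hours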
Cytochrome P450 2D6 = Cytochrome P450 2D6 (Homo sapiens, UniProt P10635);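 further: CYP2D6 member of a cytochrome P450 panel assay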
Chain of Cytochrome P450 2D6 (P10635 whole entry): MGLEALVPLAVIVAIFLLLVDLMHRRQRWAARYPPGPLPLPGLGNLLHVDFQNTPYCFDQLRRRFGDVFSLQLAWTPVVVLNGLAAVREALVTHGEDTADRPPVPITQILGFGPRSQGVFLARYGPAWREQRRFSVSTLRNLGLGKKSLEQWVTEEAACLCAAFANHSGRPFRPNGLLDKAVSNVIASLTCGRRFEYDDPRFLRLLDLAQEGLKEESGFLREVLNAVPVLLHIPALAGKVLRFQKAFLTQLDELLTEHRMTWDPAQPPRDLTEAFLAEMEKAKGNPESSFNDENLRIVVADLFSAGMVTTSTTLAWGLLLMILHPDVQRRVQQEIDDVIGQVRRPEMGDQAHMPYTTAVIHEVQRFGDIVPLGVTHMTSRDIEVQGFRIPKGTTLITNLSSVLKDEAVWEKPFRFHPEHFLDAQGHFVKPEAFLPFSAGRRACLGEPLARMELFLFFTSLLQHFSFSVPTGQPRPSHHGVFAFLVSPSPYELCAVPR

[3] = target: Heat shock protein HSP 90-alpha (Homo sapiens, UniProt P07900); assay type: functional, organism-based
Ephrin type-A receptor 4 = Ephrin type-A receptor 4 (Mus musculus, UniProt Q03137); assay: inhibitors of EphA4 binding to KYL peptide, primary screen, biochemical, colorimetric, mouse EphA4 (AID 689); assay type: functional
Chain of Ephrin type-A receptor 4 (Q03137 whole entry): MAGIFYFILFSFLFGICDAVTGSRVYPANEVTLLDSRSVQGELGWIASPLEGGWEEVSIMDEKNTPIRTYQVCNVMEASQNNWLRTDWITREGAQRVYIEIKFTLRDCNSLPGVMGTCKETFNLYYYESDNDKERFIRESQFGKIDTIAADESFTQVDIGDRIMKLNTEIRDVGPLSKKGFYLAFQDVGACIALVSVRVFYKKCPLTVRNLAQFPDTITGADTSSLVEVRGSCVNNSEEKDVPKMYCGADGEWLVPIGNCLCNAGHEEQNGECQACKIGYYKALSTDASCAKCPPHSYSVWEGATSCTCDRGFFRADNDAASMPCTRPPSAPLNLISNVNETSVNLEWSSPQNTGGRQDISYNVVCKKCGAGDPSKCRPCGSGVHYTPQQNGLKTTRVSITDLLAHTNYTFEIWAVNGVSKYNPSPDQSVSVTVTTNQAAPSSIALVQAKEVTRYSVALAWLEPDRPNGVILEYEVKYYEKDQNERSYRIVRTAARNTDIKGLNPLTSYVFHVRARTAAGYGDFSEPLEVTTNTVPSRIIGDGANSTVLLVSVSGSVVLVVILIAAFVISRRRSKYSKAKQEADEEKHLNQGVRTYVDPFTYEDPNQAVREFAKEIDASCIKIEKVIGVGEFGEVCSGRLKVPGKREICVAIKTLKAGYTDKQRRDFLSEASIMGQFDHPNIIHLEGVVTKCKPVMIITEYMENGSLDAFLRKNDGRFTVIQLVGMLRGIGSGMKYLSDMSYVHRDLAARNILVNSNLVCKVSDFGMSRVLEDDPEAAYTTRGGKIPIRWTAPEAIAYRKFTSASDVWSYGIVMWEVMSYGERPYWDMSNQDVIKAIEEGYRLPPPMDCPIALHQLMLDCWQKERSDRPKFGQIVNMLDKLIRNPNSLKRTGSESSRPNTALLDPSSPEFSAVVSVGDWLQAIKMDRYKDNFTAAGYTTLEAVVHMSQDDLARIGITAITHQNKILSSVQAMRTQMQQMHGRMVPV

[4] = microbe, parasite or virus in culture; assay type: functional; details: Mycobacterium tuberculosis
[5] = target: Voltage-gated inwardly rectifying potassium channel KCNH2 (Homo sapiens, UniProt Q12809); assay: hERG protection from proarrhythmic block, potency, dose response, cell-based, thallium flux (AID 2121); assay type: ADME
Chain of Voltage-gated inwardly rectifying potassium channel KCNH2 (Q12809 whole entry): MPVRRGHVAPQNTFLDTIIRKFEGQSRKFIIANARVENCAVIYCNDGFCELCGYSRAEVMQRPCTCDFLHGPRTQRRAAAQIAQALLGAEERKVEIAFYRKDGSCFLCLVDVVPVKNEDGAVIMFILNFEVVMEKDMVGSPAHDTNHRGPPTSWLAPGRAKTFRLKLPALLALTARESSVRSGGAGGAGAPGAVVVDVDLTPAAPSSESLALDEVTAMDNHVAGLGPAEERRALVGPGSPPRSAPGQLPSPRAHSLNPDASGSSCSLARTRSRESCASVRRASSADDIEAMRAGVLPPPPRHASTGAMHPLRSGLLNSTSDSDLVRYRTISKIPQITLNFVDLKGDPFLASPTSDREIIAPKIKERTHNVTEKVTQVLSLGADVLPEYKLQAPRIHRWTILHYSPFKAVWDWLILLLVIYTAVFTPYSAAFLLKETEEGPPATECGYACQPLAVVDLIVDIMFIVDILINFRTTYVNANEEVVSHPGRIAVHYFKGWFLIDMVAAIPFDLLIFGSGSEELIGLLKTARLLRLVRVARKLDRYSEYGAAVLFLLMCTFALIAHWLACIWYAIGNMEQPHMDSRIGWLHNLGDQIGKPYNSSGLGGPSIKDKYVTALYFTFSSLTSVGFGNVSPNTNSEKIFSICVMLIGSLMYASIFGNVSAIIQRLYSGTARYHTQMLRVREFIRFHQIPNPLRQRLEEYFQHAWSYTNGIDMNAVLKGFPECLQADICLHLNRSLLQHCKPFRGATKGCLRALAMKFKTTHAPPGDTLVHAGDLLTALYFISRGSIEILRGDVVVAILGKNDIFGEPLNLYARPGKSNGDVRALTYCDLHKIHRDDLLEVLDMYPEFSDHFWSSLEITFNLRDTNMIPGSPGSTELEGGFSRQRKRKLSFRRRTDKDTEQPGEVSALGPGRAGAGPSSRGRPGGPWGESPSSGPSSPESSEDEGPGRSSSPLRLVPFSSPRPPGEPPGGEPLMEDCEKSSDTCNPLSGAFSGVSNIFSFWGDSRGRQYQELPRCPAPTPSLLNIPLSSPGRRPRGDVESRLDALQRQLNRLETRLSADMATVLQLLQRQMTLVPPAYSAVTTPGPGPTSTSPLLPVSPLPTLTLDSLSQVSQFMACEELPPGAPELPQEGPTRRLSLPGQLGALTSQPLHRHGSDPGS

Bcl-2-related protein A1 [6] = target: T1, Bcl-2-related protein A1 (Mus musculus, UniProt Q07440); assay: Bfl-1 binding inhibitors, SAR follow-up, biochemical, fluorescence polarization (AID 1070)
T1 sequence (Q07440 whole entry): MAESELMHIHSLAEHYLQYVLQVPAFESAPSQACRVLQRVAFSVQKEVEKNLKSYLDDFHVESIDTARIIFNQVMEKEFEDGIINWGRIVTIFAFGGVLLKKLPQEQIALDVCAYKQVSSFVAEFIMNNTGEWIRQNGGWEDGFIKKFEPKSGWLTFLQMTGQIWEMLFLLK

[7] = target: Glyceraldehyde-3-phosphate dehydrogenase (Homo sapiens, UniProt P04406)
Chain of Glyceraldehyde-3-phosphate dehydrogenase (P04406 whole entry): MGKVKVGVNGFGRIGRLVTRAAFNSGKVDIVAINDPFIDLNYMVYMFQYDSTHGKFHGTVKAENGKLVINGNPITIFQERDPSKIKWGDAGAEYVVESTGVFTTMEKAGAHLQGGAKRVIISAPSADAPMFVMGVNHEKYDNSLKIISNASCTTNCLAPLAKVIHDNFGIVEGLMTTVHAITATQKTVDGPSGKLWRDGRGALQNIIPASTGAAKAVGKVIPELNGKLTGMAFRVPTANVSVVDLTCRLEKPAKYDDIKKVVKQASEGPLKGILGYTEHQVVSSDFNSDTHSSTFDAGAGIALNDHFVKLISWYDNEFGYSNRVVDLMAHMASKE

Bcl-2-related protein A1 [8] = target: T1, Bcl-2-related protein A1; assay: Bfl-1 inhibitors blocking BH3 peptide binding, confirmation, biochemical, TR-FRET, mouse Bfl-1 (AID 621);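 further: TR-FRET binding of GST-Bfl-1 to FITC-labelled Bid peptide via terbium antibody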
Estrogen receptor beta = Estrogen receptor beta (Homo sapiens, UniProt Q92731); assay: ERβ–SRC-3 coactivator interaction inhibitors, confirmation, orthogonal assay, biochemical, ELISA, streptavidin-HRP readout (AID 1060)
Chain of Estrogen receptor beta (Q92731 whole entry): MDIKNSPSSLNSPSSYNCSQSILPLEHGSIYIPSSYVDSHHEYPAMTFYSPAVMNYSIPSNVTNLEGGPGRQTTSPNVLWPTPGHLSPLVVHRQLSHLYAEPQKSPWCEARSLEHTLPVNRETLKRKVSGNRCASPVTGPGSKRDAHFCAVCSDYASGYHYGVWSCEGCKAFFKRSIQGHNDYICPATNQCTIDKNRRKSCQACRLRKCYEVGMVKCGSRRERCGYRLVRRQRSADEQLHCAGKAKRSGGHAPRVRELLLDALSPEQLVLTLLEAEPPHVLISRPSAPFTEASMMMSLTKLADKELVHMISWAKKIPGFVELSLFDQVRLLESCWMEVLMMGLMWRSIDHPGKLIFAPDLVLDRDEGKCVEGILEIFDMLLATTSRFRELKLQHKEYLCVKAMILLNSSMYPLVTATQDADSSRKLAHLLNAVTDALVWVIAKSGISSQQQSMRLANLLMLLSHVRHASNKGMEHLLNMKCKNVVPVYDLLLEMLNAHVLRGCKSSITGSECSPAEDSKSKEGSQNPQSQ

[9] = target: Sphingosine 1-phosphate receptor 2 (Homo sapiens, UniProt O95136); assay: Dose Response Cell Based Assay for Agonists of the S1P2 Receptor of Purchased Analogues. [Related pubchem assays: 729, 843, 854, 736 ]; assay type: functional
Chain of Sphingosine 1-phosphate receptor 2 (O95136 whole entry): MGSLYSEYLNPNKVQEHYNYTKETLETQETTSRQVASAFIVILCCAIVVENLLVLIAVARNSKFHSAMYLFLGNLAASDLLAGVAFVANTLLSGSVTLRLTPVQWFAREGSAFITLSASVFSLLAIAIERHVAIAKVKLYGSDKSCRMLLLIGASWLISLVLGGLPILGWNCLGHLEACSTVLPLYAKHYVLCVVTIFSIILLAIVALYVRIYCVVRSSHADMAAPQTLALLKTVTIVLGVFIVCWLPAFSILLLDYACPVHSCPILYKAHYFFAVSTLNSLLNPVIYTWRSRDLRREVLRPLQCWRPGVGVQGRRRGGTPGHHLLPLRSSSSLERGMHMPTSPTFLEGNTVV

[10] = target: Neuropeptide Y receptor type 1 (Homo sapiens, UniProt P25929); assay: Fluorescence-based dose response cell-based high-throughput screening assay for agonists of NPY-Y1. [Related pubchem assays: 1697 (Screening assay (NPY-Y1 agonists).), 1359 (Screening assay (NPY-Y2 potentiators or agonists).), 1304 (Screening assay (NPY-Y1 potentiators or agonists).), 1704 (Screening assay (CNGC inhibitors).), 1791 (Summary AID.)]; assay type: functional
Chain of Neuropeptide Y receptor type 1 (P25929 whole entry): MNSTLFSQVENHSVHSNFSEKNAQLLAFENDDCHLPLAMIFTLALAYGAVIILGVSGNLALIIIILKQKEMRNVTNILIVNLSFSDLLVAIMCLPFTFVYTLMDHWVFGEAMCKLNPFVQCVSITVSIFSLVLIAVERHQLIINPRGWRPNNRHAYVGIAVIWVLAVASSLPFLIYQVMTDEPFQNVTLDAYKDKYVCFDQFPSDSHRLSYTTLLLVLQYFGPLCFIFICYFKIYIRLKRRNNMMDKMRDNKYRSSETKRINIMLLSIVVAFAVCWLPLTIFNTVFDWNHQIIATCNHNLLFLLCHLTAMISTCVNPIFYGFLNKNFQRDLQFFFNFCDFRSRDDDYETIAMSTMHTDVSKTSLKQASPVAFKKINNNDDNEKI

HEK293 = assay: Fluorescence-based counterscreen for potentiators or agonists of NPY-Y1: cell-based high-throughput dose response assay for inhibitors of cyclic nucleotide gated ion channel (CNGC) activity. In this assay, the parental HEK293 cell line transfected with a cyclic-nucleotide gated ion channel (CNGC)-based cAMP sensor is used to measure inhibition of isoproterenol-induced CNGC …; assay type: functional; details: Homo sapiens
[11] = target: Neuropeptide Y receptor type 2 (Homo sapiens, UniProt P49146); assay: Fluorescence-based counterscreen for agonists of NPY-Y1: cell-based high-throughput dose response assay for agonists of NPY-Y2.; assay type: functional
NADPH oxidase 1 = NADPH oxidase 1 (Homo sapiens, UniProt Q9Y5S8); assay type: functional, cell-based;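 further: Cell-based assay with luminescence read-out, IC50 derived from inhibitor dose-response curves; intracellular ROS from endogenous NOX1 in intact HT29 colon cancer cells; potency of inhibitors that lower the ROS luminescence signal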

Chain of Cytochrome P450 2C19 (P33261 whole entry): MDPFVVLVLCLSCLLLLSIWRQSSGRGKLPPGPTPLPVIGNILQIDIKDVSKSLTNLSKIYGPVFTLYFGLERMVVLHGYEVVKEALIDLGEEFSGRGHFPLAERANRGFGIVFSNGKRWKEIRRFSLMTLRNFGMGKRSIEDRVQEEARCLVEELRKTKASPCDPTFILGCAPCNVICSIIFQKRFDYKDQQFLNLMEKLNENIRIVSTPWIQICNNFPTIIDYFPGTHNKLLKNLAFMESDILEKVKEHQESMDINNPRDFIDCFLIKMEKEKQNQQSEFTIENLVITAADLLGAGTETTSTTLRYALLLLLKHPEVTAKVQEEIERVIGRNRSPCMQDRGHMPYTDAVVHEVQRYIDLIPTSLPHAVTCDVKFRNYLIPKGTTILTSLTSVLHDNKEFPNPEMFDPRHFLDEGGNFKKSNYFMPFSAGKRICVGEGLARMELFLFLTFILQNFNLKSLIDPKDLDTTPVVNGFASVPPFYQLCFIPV

Structure (SMILES): CC1CCC2C(=O)N3C(CCC(C)[C@@H]3c3ccc(Br)cc3)C(=O)N2C1c1ccc(Br)cc1 (stereo partly drawn)
- AC50 (Cytochrome P450 2C19): 3.98 µM (inconclusive)
- AC50 (Cytochrome P450 3A4): 5.01 µM (inconclusive)

Structure (SMILES): O=[N+]([O-])/C=C/c1cn(Cc2ccccc2)c2ccccc12
- EC50 [1]: 15.8 µM (active)
- EC50 [2]: 13.2 µM (active)
- AC50 (Cytochrome P450 2D6): 15.8 µM (inconclusive)
- AC50 [3]: 6.43 µM (active)
- IC50 (Ephrin type-A receptor 4): 2.3 µM (active)
- CC50 [4]: > 40 µM (active)

Structure (SMILES): O=C(NC(=S)Nc1ncc(Br)cc1Br)c1ccccc1
- EC50 [5]: 1.46 µM (active)

Structure (SMILES): C[C@@H]1CN(C2=C(Cl)C(=O)N(c3cccc([N+](=O)[O-])c3)C2=O)CCN1
- IC50 (Bcl-2-related protein A1 [6]): 12.7 µM (active)
- IC50 [7]: > 100 µM (not active)
- IC50 (Bcl-2-related protein A1 [8]): 9.03 µM (active)

Structure (SMILES): O=C(CCCn1c(=S)[nH]c2ccccc2c1=O)N1CCN(c2ccc(C(F)(F)F)cc2)CC1
- IC50 (Estrogen receptor beta): 33 µM (not active)

Structure (SMILES): CCC1(CC)NC(=O)N(CC(=O)OCC(=O)c2cc(C)n(Cc3ccccc3)c2C)C1=O
- EC50 [9]: > 30 µM (not active)

Structure (SMILES): CCC(C)C1C(C#N)=C(N)Oc2[nH]nc(-c3ccccc3)c21 (stereo not drawn)
- EC50 [10]: > 35.4 µM (not active)
- IC50 (HEK293): 25 µM (not active)
- EC50 [11]: > 35.4 µM (not active)

Structure (SMILES): COc1ccc(-c2nc(-c3ccccc3)c(-c3ccccc3)[nH]2)cc1
- IC50 (NADPH oxidase 1): > 17 µM (not active)
